Test results from EP1203770A1 (priority 1992, dated 1994).
Read-outs that look alike come from different tables or passages of the source.

Molecular target: T1, HIV-1 protease (Human immunodeficiency virus type 1 group M subtype B, UniProt P04585)
T1 construct: The protease (or proteinase), consisting of only 99 amino acids, is among the smallest enzymes known
Test: In vitro HIV protease inhibitory assay (HIV Protease FITC Assay)
Type: biochemical
Conditions: for inhibition at 100 µM: HIV-1 Dose 100.000 uM; for inhibition at 0.41 µM: HIV-1 Dose 0.410 uM; for inhibition at 1.23 µM: HIV-1 Dose 1.230 uM; for inhibition at 3.7 µM: HIV-1 Dose 3.700 uM; for inhibition at 11 µM: HIV-1 Dose 11.000 uM; for inhibition at 33 µM: HIV-1 Dose 33.000 uM; for Ki: read-out: HIV-1 FITC Ki
Procedure, shortened: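 Percent inhibition was read as fluorescence after avidin-bead capture and filtration separated FITC cleavage product from biotinylated substrate. Enzyme and substrate reacted 1 h, RT, dark, at pH 5.5 (0.1 M sodium acetate, 1.0 M NaCl, 0.05% NP-40).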

[1] = HIV-1 Dose 10.000 uM, read-out: HIV-1 Protease % Inhib
[2] = read-out: HIV-1 Protease % Inhib
[3] = HIV-1 Dose 0.123 uM, read-out: HIV-1 Protease % Inhib
[4] = HIV-1 Dose 0.370 uM, read-out: HIV-1 Protease % Inhib
[5] = HIV-1 Dose 1.100 uM, read-out: HIV-1 Protease % Inhib
[6] = HIV-1 Dose 3.300 uM, read-out: HIV-1 Protease % Inhib
[7] = HIV-1 Dose 30.000 uM, read-out: HIV-1 Protease % Inhib

CCCc1cc(O)c(C(c2ccccc2)C2CC2)c(=O)o1 (stereo not shown) [Example 104, 3-(Cyclopropyl-phenyl-methyl)-4-hydroxy-6-propyl-pyran-2-one]
inhibition at 1 µM (HIV-1 Dose 1.000 uM, read-out: HIV-1 Protease % Inhib): 50% | inhibition at 10 µM [1]: 73.2% | inhibition at 100 µM [2]: 87.3%

CCC(c1ccccc1)c1c(O)c(Br)c(CCc2ccccc2)oc1=O (stereo not shown) [Example 105, 5-Bromo-4-hydroxy-6-phenylethyl-3(1-phenyl-propyl)-pyran-2-one]
inhibition at 0.41 µM [2]: 14.3% | inhibition at 1.23 µM [2]: 38.9% | inhibition at 3.7 µM [2]: 75.3% | inhibition at 11 µM [2]: 103% | inhibition at 33 µM [2]: 110% | inhibition at 100 µM [2]: 108% | Ki: 458 nM

CCC(CCOCCOC)c1cc(O)c(C(c2ccccc2)C2CC2)c(=O)o1 (stereo not shown) [Example 106, 3-(Cyclopropyl-phenyl-methyl)-6-(1-ethyl-3-(2-methoxy-ethoxy)-propyl)-4-hydroxy-pyran-2-one]
inhibition at 0.41 µM [2]: 57.4% | inhibition at 1.23 µM [2]: 82.1% | inhibition at 3.7 µM [2]: 101% | inhibition at 11 µM [2]: 111% | inhibition at 33 µM [2]: 115% | inhibition at 100 µM [2]: 119% | Ki: 58 nM

COCCOCCC(Cc1ccccc1)c1cc(O)c(C(c2ccccc2)C2CC2)c(=O)o1 (stereo not shown) [Example 107, 6-(1-Benzyl-3-(2-methoxy-ethoxy)-propyl)-3-(cyclopropyl-phenyl-methyl)-4-hydroxy-pyran-2-one]
inhibition at 0.41 µM [2]: 50% | inhibition at 1.23 µM [2]: 80.3% | inhibition at 3.7 µM [2]: 100% | inhibition at 11 µM [2]: 103% | inhibition at 33 µM [2]: 109% | inhibition at 100 µM [2]: 110% | Ki: 41 nM

COCCOCCOCCCc1cc(O)c(C(c2ccccc2)C2CC2)c(=O)o1 (stereo not shown) [Example 108]
inhibition at 0.41 µM [2]: < 10% | inhibition at 1.23 µM [2]: 20.4% | inhibition at 3.7 µM [2]: 46.9% | inhibition at 11 µM [2]: 76.7% | inhibition at 33 µM [2]: 84.8% | inhibition at 100 µM [2]: 118% | Ki: 607 nM

CCCc1oc(=O)c(C(CC)c2ccccc2)c(O)c1Br (stereo not shown) [Example 109, 5-Bromo-4-hydroxy-3-(1-phenyl-propyl)-6-propyl-pyran-2-one]
inhibition at 0.41 µM [2]: 22.2% | inhibition at 1.23 µM [2]: 51.8% | inhibition at 3.7 µM [2]: 78.9% | inhibition at 11 µM [2]: 106% | inhibition at 33 µM [2]: 105% | inhibition at 100 µM [2]: 108% | Ki: 203 nM

CCC(CC)c1oc(=O)c(C(c2ccccc2)C2CC2)c(O)c1CCOCCOC (stereo not shown) [Example 110, 3-(Cyclopropyl-phenyl-methyl)-6-(1-ethyl-propyl)-4-hydroxy-5-(2-(2-methoxy-ethoxy)ethyl)-pyran-2-one]
inhibition at 0.41 µM [2]: < 10% | inhibition at 1.23 µM [2]: 16.1% | inhibition at 3.7 µM [2]: 43.2% | inhibition at 11 µM [2]: 71.2% | inhibition at 33 µM [2]: 88.6% | inhibition at 100 µM [2]: 84.3%

CCC(Cc1ccccc1)c1oc(=O)c(C(CC)c2ccccc2)c(O)c1Br (stereo not shown) [Example 111, 6-(1-Benzyl-propyl)-5-bromo-4-hydroxy-3-(1-phenyl-propyl)-pyran-2-one]
inhibition at 0.41 µM [2]: 41.7% | inhibition at 1.23 µM [2]: 66.2% | inhibition at 3.7 µM [2]: 92.2% | inhibition at 11 µM [2]: 103% | inhibition at 33 µM [2]: 102% | inhibition at 100 µM [2]: 109% | Ki: 255 nM

COCCOCCOCCc1c(C(CC2CC2)CC2CC2)oc(=O)c(C(c2ccccc2)C2CC2)c1O (stereo not shown) [Example 112]
inhibition at 0.41 µM [2]: < 10% | inhibition at 1.23 µM [2]: < 10% | inhibition at 3.7 µM [2]: 10.4% | inhibition at 11 µM [2]: 18.9% | inhibition at 33 µM [2]: 37.1% | inhibition at 100 µM [2]: 46.5%

C=CC(C1=C(O)CC2(CCC3(CC2)OCCO3)OC1=O)c1ccccc1 (stereo not shown) [Example 113, 12-Hydroxy-11-(1-phenyl-allyl)-1,4,9-trioxa-dispiro[4.2.5.2]pentadec-11-en-10-one]
inhibition at 0.41 µM [2]: < 10% | inhibition at 1.23 µM [2]: 15.3% | inhibition at 3.7 µM [2]: 42.8% | inhibition at 11 µM [2]: 79.7% | inhibition at 33 µM [2]: 101% | inhibition at 100 µM [2]: 107% | Ki: 2560 nM

CCC(C1=C(O)CC2(CCC3(CC2)OCCO3)OC1=O)c1ccccc1 (stereo not shown) [Example 114, 12-Hydroxy-11-(1-phenyl-propyl)-1,4,9-trioxa-dispiro[4.2.5.2]pentadec-11-en-10-one]
inhibition at 0.41 µM [2]: < 10% | inhibition at 1.23 µM [2]: < 10% | inhibition at 3.7 µM [2]: 25.8% | inhibition at 11 µM [2]: 63.5% | inhibition at 33 µM [2]: 67.5% | inhibition at 100 µM [2]: 55.4% | Ki: 4290 nM

CCC(C1=C(O)CC2(CCC(=O)CC2)OC1=O)c1ccccc1 (stereo not shown) [Example 115, 4-Hydroxy-3-(1-phenyl-propyl)-1-oxa-spiro[5.5]undec-3-ene-2,9-dione]
inhibition at 0.41 µM [2]: < 10% | inhibition at 1.23 µM [2]: 27.1% | inhibition at 3.7 µM [2]: 56.9% | inhibition at 11 µM [2]: 91.5% | inhibition at 33 µM [2]: 103% | inhibition at 100 µM [2]: 94.8% | Ki: 1160 nM

CCC(C1=C(O)CC2(CCC(O)CC2)OC1=O)c1ccccc1 (stereo not shown) [Example 116, 4,9-Dihydroxy-3-(1-phenyl-propyl)-1-oxa-spiro[5.5]undec-3-en-2-one]
inhibition at 0.123 µM [3]: < 10% | inhibition at 0.37 µM [4]: < 10% | inhibition at 1.1 µM [5]: < 10% | inhibition at 3.3 µM [6]: 31.1% | inhibition at 10 µM [1]: 62% | inhibition at 30 µM [7]: 89.9%

O=c1oc(CC(O)c2ccco2)cc(O)c1C(c1ccccc1)C1CC1 (stereo not shown) [Example 117, 3-(Cyclopropyl-phenyl-methyl)-6-(2-furan-2-yl-2-hydroxy-ethyl)-4-hydroxy-pyran-2]
inhibition at 0.123 µM [3]: < 10% | inhibition at 0.37 µM [4]: < 10% | inhibition at 1.1 µM [5]: 17% | inhibition at 3.3 µM [6]: 51.2% | inhibition at 10 µM [1]: 87% | inhibition at 30 µM [7]: 101%

O=c1oc(CCCC(F)(F)F)cc(O)c1C(c1ccccc1)C1CC1 (stereo not shown) [Example 118, 3-(Cyclopropyl-phenyl-methyl)-4-hydroxy-6-(4,4,4-trifluoro-butyl)-pyran-2-one]
inhibition at 0.123 µM [3]: < 10% | inhibition at 0.37 µM [4]: < 10% | inhibition at 1.1 µM [5]: 20% | inhibition at 3.3 µM [6]: 52.4% | inhibition at 10 µM [1]: 83.9% | inhibition at 30 µM [7]: 102%

O=c1oc(CCc2nnnn2C2CCCCC2)cc(O)c1C(c1ccccc1)C1CC1 (stereo not shown) [Example 119, 6-[2-(1-Cyclohexyl-1H-tetrazol-5-yl)-ethyl]-3-(cyclopropyl-phenyl-methyl)-4-hydroxy-2-one]
inhibition at 0.123 µM [3]: < 10% | inhibition at 0.37 µM [4]: < 10% | inhibition at 1.1 µM [5]: < 10% | inhibition at 3.3 µM [6]: < 10% | inhibition at 10 µM [1]: 20.7% | inhibition at 30 µM [7]: 60.3%

CCC(C1=C(O)CC(Cc2ccccc2)(Cc2ccccc2)OC1=O)c1ccccc1 (stereo not shown) [Example 120, 6,6-Dibenzyl-4-hydroxy-3-(1-phenyl-propyl)-5,6-dihydro-pyran-2-one]
inhibition at 0.123 µM [3]: < 10% | inhibition at 0.37 µM [4]: < 10% | inhibition at 1.1 µM [5]: 10.1% | inhibition at 3.3 µM [6]: 26.2% | inhibition at 10 µM [1]: 46.4% | inhibition at 30 µM [7]: 60.1%

C=CC(C1=C(O)CC2(CCOCC2)OC1=O)c1ccccc1 (stereo not shown) [Example 121, 4-Hydroxy-3-(1-phenyl-allyl)-1,9-dioxa-spiro[5.5]undec-3-en-2-one]
inhibition at 0.123 µM [3]: < 10% | inhibition at 0.37 µM [4]: < 10% | inhibition at 1.1 µM [5]: < 10% | inhibition at 3.3 µM [6]: 10.8% | inhibition at 10 µM [1]: 40.2% | inhibition at 30 µM [7]: 68.5%

Cc1cc(O)c(CC=Cc2ccccc2)c(=O)o1 [Example 122, 4-Hydroxy-6-methyl-3-(3-phenyl-prop-2-enyl)-2H-Pyran-2-one]
inhibition at 100 µM [2]: 26%

CCC(C1=C(O)CC2(CCC(=O)CC2)OC1=NO)c1ccccc1 (stereo not shown) [Example 123, 4-Hydroxy-3-(1-phenyl-propyl)-1-oxa-spiro[5.5]undec-3-ene-2,9-dione monooxime]
inhibition at 0.123 µM [3]: < 10% | inhibition at 0.37 µM [4]: < 10% | inhibition at 1.1 µM [5]: < 10% | inhibition at 3.3 µM [6]: 14.8% | inhibition at 10 µM [1]: 39.6% | inhibition at 30 µM [7]: 72%

CCC(Cc1ccccc1)c1cc(O)c(C2(c3ccccc3)CCC2)c(=O)o1 (stereo not shown) [Example 124, 4-Hydroxy-3-(1-phenylcyclobutyl)-6-[1-(phenylmethyl)propyl]-2H-pyran-2-one]
inhibition at 0.123 µM [3]: < 10% | inhibition at 0.37 µM [4]: < 10% | inhibition at 1.1 µM [5]: < 10% | inhibition at 3.3 µM [6]: 27.5% | inhibition at 10 µM [1]: 53.4% | inhibition at 30 µM [7]: 64.8%

C=CC(C1=C(O)CC2(CCCCCCC2)OC1=O)c1ccccc1 (stereo not shown) [Example 125, 4-Hydroxy-3-(1-phenyl-2-propenyl)-1-oxaspiro[5.7]tridec-3-en-2-one]
inhibition at 0.123 µM [3]: < 10% | inhibition at 0.37 µM [4]: < 10% | inhibition at 1.1 µM [5]: 15.4% | inhibition at 3.3 µM [6]: 45.7% | inhibition at 10 µM [1]: 71% | inhibition at 30 µM [7]: 89.7%

CCC(C1=C(O)CC2(CCCCCCC2)OC1=O)c1ccccc1 (stereo not shown) [Example 126, 4-Hydroxy-3-(1-phenylpropyl)-1-oxaspiro[5.7]tridec-3-en-2-one]
inhibition at 0.123 µM [2]: < 10% | inhibition at 0.37 µM [2]: < 10% | inhibition at 1.1 µM [2]: 13.2% | inhibition at 3.3 µM [2]: 42.9% | inhibition at 10 µM [2]: 66.8% | inhibition at 30 µM [2]: 81%

C=CC(C1=C(O)CC2(CCCCCC2)OC1=O)c1ccccc1 (stereo not shown) [Example 127, 4-Hydroxy-3-(1-phenylallyl)-1-oxa-spiro[5.6]-dodec-3-en-2-one]
inhibition at 0.123 µM [3]: < 10% | inhibition at 0.37 µM [4]: 14.4% | inhibition at 1.1 µM [5]: 38.4% | inhibition at 3.3 µM [6]: 65.6% | inhibition at 10 µM [1]: 98.9% | inhibition at 30 µM [7]: 102%
